Read-outs that look alike come from different tables or passages of the source.
System: PABPC1 PABC
Type: binding, human
Conditions: DMS-BM library, bait PABPC1 PABC, row aa = residue at this position; for DMS-derived PSSM value, position F16 / DMS-derived PSSM value (averaged), position F14 / DMS-derived PSSM value, position F14: F = wild type; for DMS-derived PSSM value (averaged), position S13 / DMS-derived PSSM value, position S2 / DMS-derived PSSM value, position S15: S = wild type; for DMS-derived PSSM value (averaged), position L2: L = wild type; for DMS-derived PSSM value, position E10 / DMS-derived PSSM value (averaged), position E8: E = wild type
[1] = prey ATXN2, peptide KSTLNPNAKEFNPRSF
[2] = prey ATXN2, TLNPNAKEFNPRSF(averaged) over the two overlapping peptides
[3] = prey ATXN2, TLNPNAKEFNPRSF(averaged) over the two overlapping peptides, P = wild type
[4] = prey ATXN2, peptide TLNPNAKEFNPRSFSQ, N = wild type
[5] = prey ATXN2, peptide TLNPNAKEFNPRSFSQ, K = wild type
[6] = prey ATXN2, peptide TLNPNAKEFNPRSFSQ, P = wild type
[7] = prey ATXN2, peptide KSTLNPNAKEFNPRSF, A = wild type
[8] = prey ATXN2, peptide TLNPNAKEFNPRSFSQ
[9] = prey ATXN2, peptide KSTLNPNAKEFNPRSF, N = wild type
[10] = prey ATXN2, TLNPNAKEFNPRSF(averaged) over the two overlapping peptides, N = wild type
[11] = prey ATXN2, peptide KSTLNPNAKEFNPRSF, P = wild type
[12] = prey ATXN2, TLNPNAKEFNPRSF(averaged) over the two overlapping peptides, R = wild type

For “KSTLNPNAKEFNPRSF F16G (KSTLNPNAKEFNPRSG)”, the “DMS-derived PSSM value, position F16” value [1] was 0.

For “TLNPNAKEFNPRSF(averaged) S13L (TLNPNAKEFNPRLF)”, the “DMS-derived PSSM value (averaged), position S13” value [2] was 0.2429.

With TLNPNAKEFNPRSFSQ A6K (TLNPNKKEFNPRSFSQ) the “DMS-derived PSSM value, position A6” value (prey ATXN2, peptide TLNPNAKEFNPRSFSQ, A = wild type) was 0.

With “TLNPNAKEFNPRSF(averaged) P11Q (TLNPNAKEFNQRSF)” the “DMS-derived PSSM value (averaged), position P11” value [3] was 0.04932.

For TLNPNAKEFNPRSFSQ N3M (TLMPNAKEFNPRSFSQ), the “DMS-derived PSSM value, position N3” value [4] was 0.

In the case of TLNPNAKEFNPRSFSQ K7Y (TLNPNAYEFNPRSFSQ), the “DMS-derived PSSM value, position K7” value [5] is reported as 0.472.

For KSTLNPNAKEFNPRSF S2F (KFTLNPNAKEFNPRSF), the “DMS-derived PSSM value, position S2” value [1] was 0.06555.

With TLNPNAKEFNPRSFSQ K7F (TLNPNAFEFNPRSFSQ) the “DMS-derived PSSM value, position K7” value [5] was 0.058.

With “TLNPNAKEFNPRSF(averaged) L2G (TGNPNAKEFNPRSF)” the “DMS-derived PSSM value (averaged), position L2” value [2] was 0.

“KSTLNPNAKEFNPRSF R14K (KSTLNPNAKEFNPKSF)” was tested, and the “DMS-derived PSSM value, position R14” value (prey ATXN2, peptide KSTLNPNAKEFNPRSF, R = wild type) was 0.002275.

For “TLNPNAKEFNPRSF(averaged) L2Q (TQNPNAKEFNPRSF)”, the “DMS-derived PSSM value (averaged), position L2” value [2] was 0.

For TLNPNAKEFNPRSFSQ P4R (TLNRNAKEFNPRSFSQ), the “DMS-derived PSSM value, position P4” value [6] was 0.

“TLNPNAKEFNPRSF(averaged) F14A (TLNPNAKEFNPRSA)” was tested, and the “DMS-derived PSSM value (averaged), position F14” value [2] was 0.04899.

With KSTLNPNAKEFNPRSF A8N (KSTLNPNNKEFNPRSF) the “DMS-derived PSSM value, position A8” value [7] was 0.

In the case of “KSTLNPNAKEFNPRSF S15D (KSTLNPNAKEFNPRDF)”, the “DMS-derived PSSM value, position S15” value [1] is reported as 0.

In the case of “TLNPNAKEFNPRSFSQ S15F (TLNPNAKEFNPRSFFQ)”, the “DMS-derived PSSM value, position S15” value [8] is reported as 0.01014.

“KSTLNPNAKEFNPRSF S15Y (KSTLNPNAKEFNPRYF)” was tested, and the “DMS-derived PSSM value, position S15” value [1] was 0.02596.

For “KSTLNPNAKEFNPRSF F16H (KSTLNPNAKEFNPRSH)”, the “DMS-derived PSSM value, position F16” value [1] was 0.03107.

For “TLNPNAKEFNPRSFSQ F14W (TLNPNAKEFNPRSWSQ)”, the “DMS-derived PSSM value, position F14” value [8] was 0.01201.

For KSTLNPNAKEFNPRSF N7Q (KSTLNPQAKEFNPRSF), the “DMS-derived PSSM value, position N7” value [9] was 0.04334.

With KSTLNPNAKEFNPRSF S2H (KHTLNPNAKEFNPRSF) the “DMS-derived PSSM value, position S2” value [1] was 0.0308.

“KSTLNPNAKEFNPRSF N12W (KSTLNPNAKEFWPRSF)” was tested, and the “DMS-derived PSSM value, position N12” value [9] was 0.1585.

For “KSTLNPNAKEFNPRSF F16I (KSTLNPNAKEFNPRSI)”, the “DMS-derived PSSM value, position F16” value [1] was 0.0559.

With “TLNPNAKEFNPRSF(averaged) K7I (TLNPNAIEFNPRSF)” the “DMS-derived PSSM value (averaged), position K7” value (prey ATXN2, TLNPNAKEFNPRSF(averaged) over the two overlapping peptides, K = wild type) was 0.2038.

“TLNPNAKEFNPRSF(averaged) N10Q (TLNPNAKEFQPRSF)” was tested, and the “DMS-derived PSSM value (averaged), position N10” value [10] was 0.06161.

With “KSTLNPNAKEFNPRSF N12P (KSTLNPNAKEFPPRSF)” the “DMS-derived PSSM value, position N12” value [9] was 0.

With “TLNPNAKEFNPRSFSQ P11D (TLNPNAKEFNDRSFSQ)” the “DMS-derived PSSM value, position P11” value [6] was 0.005508.

In the case of “TLNPNAKEFNPRSF(averaged) L2I (TINPNAKEFNPRSF)”, the “DMS-derived PSSM value (averaged), position L2” value [2] is reported as 0.0008035.

“TLNPNAKEFNPRSF(averaged) S13I (TLNPNAKEFNPRIF)” was tested, and the “DMS-derived PSSM value (averaged), position S13” value [2] was 0.01901.

“KSTLNPNAKEFNPRSF E10D (KSTLNPNAKDFNPRSF)” was tested, and the “DMS-derived PSSM value, position E10” value [1] was 0.

TLNPNAKEFNPRSFSQ N3Q (TLQPNAKEFNPRSFSQ) was tested, and the “DMS-derived PSSM value, position N3” value [4] was 0.055.

KSTLNPNAKEFNPRSF A8K (KSTLNPNKKEFNPRSF) was tested, and the “DMS-derived PSSM value, position A8” value [7] was 0.

For TLNPNAKEFNPRSFSQ K7E (TLNPNAEEFNPRSFSQ), the “DMS-derived PSSM value, position K7” value [5] was 0.001823.

For “TLNPNAKEFNPRSF(averaged) P4N (TLNNNAKEFNPRSF)”, the “DMS-derived PSSM value (averaged), position P4” value [3] was 0.0005247.

With “KSTLNPNAKEFNPRSF F16D (KSTLNPNAKEFNPRSD)” the “DMS-derived PSSM value, position F16” value [1] was 0.02019.

With “TLNPNAKEFNPRSF(averaged) E8G (TLNPNAKGFNPRSF)” the “DMS-derived PSSM value (averaged), position E8” value [2] was 0.

In the case of “TLNPNAKEFNPRSFSQ F14Q (TLNPNAKEFNPRSQSQ)”, the “DMS-derived PSSM value, position F14” value [8] is reported as 0.1174.

For “TLNPNAKEFNPRSF(averaged) N5S (TLNPSAKEFNPRSF)”, the “DMS-derived PSSM value (averaged), position N5” value [10] was 0.02321.

In the case of “TLNPNAKEFNPRSF(averaged) P11E (TLNPNAKEFNERSF)”, the “DMS-derived PSSM value (averaged), position P11” value [3] is reported as 0.00334.

In the case of “KSTLNPNAKEFNPRSF S15A (KSTLNPNAKEFNPRAF)”, the “DMS-derived PSSM value, position S15” value [1] is reported as 0.02636.

For KSTLNPNAKEFNPRSF P6E (KSTLNENAKEFNPRSF), the “DMS-derived PSSM value, position P6” value [11] was 0.

In the case of “KSTLNPNAKEFNPRSF P13M (KSTLNPNAKEFNMRSF)”, the “DMS-derived PSSM value, position P13” value [11] is reported as 0.

With “TLNPNAKEFNPRSF(averaged) N5I (TLNPIAKEFNPRSF)” the “DMS-derived PSSM value (averaged), position N5” value [10] was 0.2839.

“TLNPNAKEFNPRSF(averaged) A6Q (TLNPNQKEFNPRSF)” was tested, and the “DMS-derived PSSM value (averaged), position A6” value (prey ATXN2, TLNPNAKEFNPRSF(averaged) over the two overlapping peptides, A = wild type) was 0.

With KSTLNPNAKEFNPRSF S2Y (KYTLNPNAKEFNPRSF) the “DMS-derived PSSM value, position S2” value [1] was 0.2105.

For “TLNPNAKEFNPRSF(averaged) F14K (TLNPNAKEFNPRSK)”, the “DMS-derived PSSM value (averaged), position F14” value [2] was 0.01179.

With “TLNPNAKEFNPRSF(averaged) R12A (TLNPNAKEFNPASF)” the “DMS-derived PSSM value (averaged), position R12” value [12] was 0.05134.

“TLNPNAKEFNPRSF(averaged) N10T (TLNPNAKEFTPRSF)” was tested, and the “DMS-derived PSSM value (averaged), position N10” value [10] was 0.03227.

With “TLNPNAKEFNPRSF(averaged) L2E (TENPNAKEFNPRSF)” the “DMS-derived PSSM value (averaged), position L2” value [2] was 0.04453.

For TLNPNAKEFNPRSFSQ N3G (TLGPNAKEFNPRSFSQ), the “DMS-derived PSSM value, position N3” value [4] was 0.

For TLNPNAKEFNPRSFSQ N5M (TLNPMAKEFNPRSFSQ), the “DMS-derived PSSM value, position N5” value [4] was 0.7094.

In the case of “TLNPNAKEFNPRSF(averaged) E8V (TLNPNAKVFNPRSF)”, the “DMS-derived PSSM value (averaged), position E8” value [2] is reported as 0.141.

“TLNPNAKEFNPRSF(averaged) R12P (TLNPNAKEFNPPSF)” was tested, and the “DMS-derived PSSM value (averaged), position R12” value [12] was 0.006659.

“TLNPNAKEFNPRSF(averaged) E8T (TLNPNAKTFNPRSF)” was tested, and the “DMS-derived PSSM value (averaged), position E8” value [2] was 0.1317.

In the case of “TLNPNAKEFNPRSF(averaged) F14R (TLNPNAKEFNPRSR)”, the “DMS-derived PSSM value (averaged), position F14” value [2] is reported as 0.0001414.

With “TLNPNAKEFNPRSF(averaged) N10R (TLNPNAKEFRPRSF)” the “DMS-derived PSSM value (averaged), position N10” value [10] was 0.02307.

“TLNPNAKEFNPRSF(averaged) T1H (HLNPNAKEFNPRSF)” was tested, and the “DMS-derived PSSM value (averaged), position T1” value (prey ATXN2, TLNPNAKEFNPRSF(averaged) over the two overlapping peptides, T = wild type) was 0.01509.

With “KSTLNPNAKEFNPRSF E10S (KSTLNPNAKSFNPRSF)” the “DMS-derived PSSM value, position E10” value [1] was 0.

KSTLNPNAKEFNPRSF K9D (KSTLNPNADEFNPRSF) was tested, and the “DMS-derived PSSM value, position K9” value (prey ATXN2, peptide KSTLNPNAKEFNPRSF, K = wild type) was 0.007291.

With “TLNPNAKEFNPRSFSQ R12F (TLNPNAKEFNPFSFSQ)” the “DMS-derived PSSM value, position R12” value (prey ATXN2, peptide TLNPNAKEFNPRSFSQ, R = wild type) was 0.03143.

In the case of KSTLNPNAKEFNPRSF N5R (KSTLRPNAKEFNPRSF), the “DMS-derived PSSM value, position N5” value [9] is reported as 0.

Reference: article PMC12102759 (Protein Science : A Publication of the Protein Society, 2025)
